The text below walks through data of article PMC7939386 (The Journal of Biological Chemistry, 2021).

SMILES strings stand for the structures.

One assay concerns the target T1, KIF1A-560-GFP (Rattus norvegicus, UniProt F1M4A4).
T1 construct: motor head and neck linker, residues 1-368, followed by Drosophila melanogaster KHC neck coil and coil-1 (216 residues by b8; b50 says additional 216 residues), C-terminal GFP and His6; bacterial expression; homodimer
T1 sequence (F1M4A4 1-368): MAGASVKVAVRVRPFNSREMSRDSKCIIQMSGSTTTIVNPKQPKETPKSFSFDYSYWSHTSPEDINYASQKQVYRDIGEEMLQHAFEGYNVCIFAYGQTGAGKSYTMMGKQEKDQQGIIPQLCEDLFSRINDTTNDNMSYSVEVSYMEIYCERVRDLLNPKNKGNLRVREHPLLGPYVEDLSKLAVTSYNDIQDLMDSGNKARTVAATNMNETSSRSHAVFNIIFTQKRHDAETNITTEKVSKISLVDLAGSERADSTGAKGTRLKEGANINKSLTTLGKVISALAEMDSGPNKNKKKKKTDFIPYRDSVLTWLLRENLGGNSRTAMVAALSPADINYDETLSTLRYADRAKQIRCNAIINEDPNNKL
Briefly: single-molecule TIRF microtubule off-rate versus [ADP], hyperbolic fit. The following applies: motor bound to Taxol-stabilized microtubules; BRB80 (80 mM PIPES, pH 6.9), 25 °C; fit ± 95% CI; authors equate K0.5 with KD. Format: binding.

For assay [1], the target named is T2, KIF1A-406 (Rattus norvegicus, UniProt F1M4A4).
T2 construct: motor head and neck linker, residues 1-368, followed by 61 residues of Drosophila melanogaster KHC neck coil (printed 'residues 445-405', probably 345-405) for dimerization; C-terminal His6; E. coli-type bacterial expression; homodimer
T2 sequence (F1M4A4 1-368): T1 sequence (F1M4A4 1-368)
Description: stopped-flow dissociation, ADP-bound motor flushed against […] mADP. The class given is binding. The following applies: no microtubules; BRB80, pH 6.9, 25 °C; b26 prints the error as ± 0.005.

For assay [2], the target named is T2, KIF1A-406. Description: stopped-flow nucleotide-triggered half-site release of mADP, Michaelis-Menten fit. The class given is biochemical. The following applies: one-head-bound complex with 3 μM Taxol-stabilized microtubules, mADP in tethered head; BRB80 (80 mM PIPES, 1 mM MgCl2, pH 6.9), 25 °C; fit ± 95% CI; read-out: Experimental.

In the case of `Nc1ncnc2c1ncn2[C@@H]1O[C@H](COP(=O)(O)OP(=O)(O)O)[C@@H](O)[C@H]1O` [ADP], at KIF1A-560-GFP, binding was characterised by a dissociation constant (Kd) of 93 ± 204 µM. Further, the “mADP dissociation rate constant” value at KIF1A-406 [1] was 0.26 ± 0.001 s⁻¹.
`Nc1ncnc2c1ncn2[C@@H]1O[C@H](COP(=O)(O)OP(=O)(O)OP(=O)(O)O)[C@@H](O)[C@H]1O` [ATP]: the Km at KIF1A-406 [2] is 119 ± 21 µM.
